In ChEMBL document CHEMBL1201862, “PubChem BioAssay data set” (2004):
Active and inactive are the calls of the source. For most assays here, no stated cut-off is given here; in the data, actives have a measured IC50 and inactives only a lower limit.

Assays:
[1] = molecular target: T1, Caspase-3 (Homo sapiens, UniProt P42574); assay type: functional;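 further: Dose-response selectivity test against caspase-3 for candidate inhibitors of sentrin-specific proteases (SENPs)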
T1 sequence (P42574 whole entry): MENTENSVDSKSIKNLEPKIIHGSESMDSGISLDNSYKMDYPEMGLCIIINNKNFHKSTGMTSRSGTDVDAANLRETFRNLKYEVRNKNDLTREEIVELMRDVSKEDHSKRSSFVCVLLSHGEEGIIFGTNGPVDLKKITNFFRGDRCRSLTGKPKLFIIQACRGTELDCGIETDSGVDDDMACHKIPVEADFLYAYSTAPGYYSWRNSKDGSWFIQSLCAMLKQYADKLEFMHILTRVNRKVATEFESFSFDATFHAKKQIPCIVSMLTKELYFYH

[2] = molecular target: T2, Sentrin-specific protease 6 (Homo sapiens, UniProt Q9GZR1); assay type: functional;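 further: Luminescence-based dose-response confirmatory assay of SENP6 inhibition, following up an ultra-high-throughput screen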
T2 sequence (Q9GZR1 whole entry): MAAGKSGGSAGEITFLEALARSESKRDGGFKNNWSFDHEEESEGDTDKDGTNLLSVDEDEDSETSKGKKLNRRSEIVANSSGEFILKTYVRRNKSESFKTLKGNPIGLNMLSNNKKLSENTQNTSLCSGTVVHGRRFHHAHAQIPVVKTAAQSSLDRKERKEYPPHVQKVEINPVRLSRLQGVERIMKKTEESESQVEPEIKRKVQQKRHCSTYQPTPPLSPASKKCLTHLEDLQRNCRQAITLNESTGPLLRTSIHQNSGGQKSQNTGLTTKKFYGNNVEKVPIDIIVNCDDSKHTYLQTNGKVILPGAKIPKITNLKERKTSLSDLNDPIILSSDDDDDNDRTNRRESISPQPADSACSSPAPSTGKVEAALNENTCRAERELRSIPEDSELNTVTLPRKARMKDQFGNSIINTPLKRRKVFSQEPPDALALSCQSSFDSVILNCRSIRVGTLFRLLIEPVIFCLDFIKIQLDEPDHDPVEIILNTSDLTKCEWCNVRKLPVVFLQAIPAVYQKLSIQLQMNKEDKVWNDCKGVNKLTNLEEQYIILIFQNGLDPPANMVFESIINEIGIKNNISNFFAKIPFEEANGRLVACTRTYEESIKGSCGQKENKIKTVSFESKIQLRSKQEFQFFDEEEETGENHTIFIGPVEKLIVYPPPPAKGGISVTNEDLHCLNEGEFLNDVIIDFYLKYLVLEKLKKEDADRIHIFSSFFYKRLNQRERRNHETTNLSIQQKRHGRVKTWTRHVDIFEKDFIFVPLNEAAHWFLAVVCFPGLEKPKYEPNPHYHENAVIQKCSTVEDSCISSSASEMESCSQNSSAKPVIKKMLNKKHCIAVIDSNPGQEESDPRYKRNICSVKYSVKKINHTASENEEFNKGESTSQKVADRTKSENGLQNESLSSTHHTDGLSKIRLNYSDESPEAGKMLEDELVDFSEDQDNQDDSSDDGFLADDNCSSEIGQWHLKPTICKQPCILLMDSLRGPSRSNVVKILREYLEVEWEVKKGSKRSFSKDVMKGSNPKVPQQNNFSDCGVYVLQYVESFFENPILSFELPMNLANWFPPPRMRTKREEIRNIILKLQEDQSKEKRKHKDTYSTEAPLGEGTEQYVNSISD

[3] = molecular target: T3, Histone-lysine N-methyltransferase NSD2 (Homo sapiens, UniProt O96028); assay type: biochemical
T3 sequence (O96028 whole entry): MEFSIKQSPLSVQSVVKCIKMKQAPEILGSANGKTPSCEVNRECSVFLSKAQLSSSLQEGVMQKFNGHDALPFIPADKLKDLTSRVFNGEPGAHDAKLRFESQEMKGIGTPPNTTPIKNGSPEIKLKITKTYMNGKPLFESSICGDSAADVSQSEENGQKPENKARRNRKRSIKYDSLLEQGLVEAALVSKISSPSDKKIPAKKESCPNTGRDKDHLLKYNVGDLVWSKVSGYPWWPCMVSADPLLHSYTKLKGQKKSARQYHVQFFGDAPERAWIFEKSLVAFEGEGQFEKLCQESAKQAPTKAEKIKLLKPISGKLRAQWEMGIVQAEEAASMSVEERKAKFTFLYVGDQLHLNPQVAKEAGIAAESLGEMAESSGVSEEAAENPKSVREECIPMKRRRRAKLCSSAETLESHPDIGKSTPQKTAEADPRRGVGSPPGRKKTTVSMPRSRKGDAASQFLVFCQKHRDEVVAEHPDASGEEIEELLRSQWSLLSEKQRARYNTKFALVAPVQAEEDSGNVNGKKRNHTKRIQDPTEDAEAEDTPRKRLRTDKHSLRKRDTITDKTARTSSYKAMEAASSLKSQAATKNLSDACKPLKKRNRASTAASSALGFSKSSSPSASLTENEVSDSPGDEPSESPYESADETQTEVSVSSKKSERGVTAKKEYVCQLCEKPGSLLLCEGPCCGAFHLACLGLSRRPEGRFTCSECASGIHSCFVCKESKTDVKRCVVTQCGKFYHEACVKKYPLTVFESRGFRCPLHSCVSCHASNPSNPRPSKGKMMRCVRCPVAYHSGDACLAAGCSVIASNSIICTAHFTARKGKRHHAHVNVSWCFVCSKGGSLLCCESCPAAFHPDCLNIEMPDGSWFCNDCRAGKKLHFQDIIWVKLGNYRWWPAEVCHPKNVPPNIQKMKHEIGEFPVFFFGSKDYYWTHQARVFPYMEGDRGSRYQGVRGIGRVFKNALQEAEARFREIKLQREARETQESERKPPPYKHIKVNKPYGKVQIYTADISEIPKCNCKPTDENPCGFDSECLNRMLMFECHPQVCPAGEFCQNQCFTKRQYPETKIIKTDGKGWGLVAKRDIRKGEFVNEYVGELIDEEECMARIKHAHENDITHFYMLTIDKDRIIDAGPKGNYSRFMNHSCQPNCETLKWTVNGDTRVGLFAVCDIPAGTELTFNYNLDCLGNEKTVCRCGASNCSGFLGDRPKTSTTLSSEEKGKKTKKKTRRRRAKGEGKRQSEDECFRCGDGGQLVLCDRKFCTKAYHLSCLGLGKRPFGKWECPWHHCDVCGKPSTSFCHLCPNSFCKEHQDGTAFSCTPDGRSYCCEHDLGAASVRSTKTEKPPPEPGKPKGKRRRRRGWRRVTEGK

SMILES	IC50 [1]	IC50 [2]	AC50 [3]
C=CCNC1=C(Cl)C(=O)c2ccccc2C1=O	3.62 µM (active)	9.07 µM (active)	19.4 µM (active)
CN(C)c1ccc(-c2nnc(-c3cccs3)o2)cc1	22.3 µM (active)	> 100 µM (inactive)	
CCOC(=O)C(C(=O)OCC)c1cc(Br)c2noc3c2c1C(=O)c1ccccc1-3			> 20 µM (inactive)
CS(=O)(=O)c1ccc2c(c1)SC1=NC(=O)/C(=C/c3ccc(O)c(O)c3)C(=N)N12			1.9 µM (active)
